Laboratory results reported in PubChem BioAssay AID1259411 (Chemical Carcinogenesis Research Information System (CCRIS), 2018).
Active and inactive are the calls of the source. The rule behind the calls is not given here.

Test system: rodent carcinogenicity bioassays, tumor incidence
Assay: CCRIS carcinogenicity studies
Summary of the method: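 NCI-built, expert-reviewed records of carcinogenicity and related test outcomes (mutagenicity, tumor promotion/inhibition) compiled from published and report sources, historical span 1985-2011, not updated.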

Measured: carcinogen call

CC(=O)Nc1ccc2c(c1)Cc1ccccc1-2
inactive: Species: FISH, Strain/Sex: GUPPY/ MALE, FEMALE, Route: IMMERSION, Dose: 0, 1 MG/L IN WELL WATER FOR 1 6 HR EXPOSURE OR FOR 1,2,3 OR 4 12 HR EXPOSURES, MULTIPLE EXPOSURES GIVEN AT WEEKLY INTERV inactive; negative | Species: FISH, Strain/Sex: MEDAKA/ MALE, FEMALE, Route: IMMERSION, Dose: 0, 1 MG/L IN WELL WATER FOR 1 6 HR EXPOSURE OR FOR 1,2,3 OR 4 12 HR EXPOSURES, MULTIPLE EXPOSURES GIVEN AT WEEKLY INTERV inactive; negative | Species: FISH, Strain/Sex: MEDAKA/ MALE, FEMALE, Route: IMMERSION, Dose: 0, 1 MG/L IN WELL WATER FOR 7 D CONTINUOUS EXPOSURE, SOLUTIONS RENEWED EVERY 24 HR (STUDY DURATION: 52 WK) inactive; negative | Species: MOUSE, Strain/Sex: EU-PIM-1/FEMALE, Route: GAVAGE, Dose: 0, 25, 100 MG/KG 1/D FOR 38 WK (STUDY DURATION: 38 WK), Dose: 0, 25, 100 MG/KG 1/D FOR 38 WK (STUDY DURATION: 38 WK) inactive; negative
active: Species: DOG, Strain/Sex: BEAGLE, Route: ORAL, Dose: 8.3-10.9 MG/KG/D (AVE DAILY INTAKE) FOR 68.5-91 MO (TOTAL DOSE: 90-198 G), Tumor Site: Type of Lesion: LIVER: CARCINOMA, URINARY BLADDER: PAPILLOMA active; positive | Species: FISH, Strain/Sex: GUPPY/ MALE, FEMALE, Route: IMMERSION, Dose: 0, 1 MG/L IN WELL WATER FOR 7 D CONTINUOUS EXPOSURE, SOLUTIONS RENEWED EVERY 24 HR (STUDY DURATION: 52 WK), Tumor Site: Type of Lesion: LIVER: TUMOR active; positive | Species: HAMSTER, Strain/Sex: SYRIAN/ MALE, FEMALE, Route: INTRAPERITONEAL, ORAL, Dose: 5 MG/100 G 3/WK FOR 3 WK, THEN 0.06% IN DIET, Tumor Site: Type of Lesion: URINARY BLADDER, LIVER: CHOLANGIOCARCINOMA active; positive | Species: HAMSTER, Strain/Sex: SYRIAN/FEMALE, Route: ORAL, Dose: 0.025% IN DIET FOR LIFE, Tumor Site: Type of Lesion: LIVER: INTRAHEPATIC BILE DUCT CARCINOMA active; positive | Species: HAMSTER, Strain/Sex: SYRIAN, Route: ORAL, Dose: 5 MG FOR 22 WK THEN 15 MG FOR 4 WK, THEN 10 MG 2/WK AFTER 42 WK, Tumor Site: Type of Lesion: URINARY BLADDER: CARCINOMA active; positive | Species: MOUSE, Strain/Sex: BALB/C/FEMALE, Route: ORAL, Dose: 0, 75, 100, 150 PPM IN DIET UP TO 33 MO (STUDY DURATION: 33 MO), Dose: 0, 75, 100, 150 PPM IN DIET UP TO 33 MO (STUDY DURATION: 33 MO), Tumor Site: Type of Lesion: LIVER: HEPATOCELLULAR ADENOMA OR CARCINOMA, BLADDER: TRANSITIONAL CELL CARCINOMA active; positive | Species: MOUSE, Strain/Sex: CBA/ MALE, FEMALE, Route: ORAL, Dose: 3 MG/MOUSE 2/WK, Tumor Site: Type of Lesion: MAMMARY GLAND, URINARY BLADDER, LIVER, Tumor Site: Type of Lesion: MAMMARY GLAND, URINARY BLADDER, LIVER active; positive | Species: MOUSE, Strain/Sex: EU-PIM-1/MALE, Route: GAVAGE, Dose: 0, 25, 100 MG/KG 1/D FOR 38 WK (STUDY DURATION: 38 WK), Dose: 0, 25, 100 MG/KG 1/D FOR 38 WK (STUDY DURATION: 38 WK), Tumor Site: Type of Lesion: LYMPHATIC SYSTEM: LYMPHOMA active; positive | Species: MOUSE, Strain/Sex: R-III/ MALE, FEMALE, Route: ORAL, Dose: 3 MG/MOUSE 2/WK, Tumor Site: Type of Lesion: URINARY BLADDER, LIVER active; positive | Species: MOUSE, Strain/Sex: STRAIN-A/ MALE, FEMALE, Route: ORAL, Dose: 3 MG/MOUSE 2/WK, Tumor Site: Type of Lesion: URINARY BLADDER active; positive | Species: MOUSE, Strain/Sex: STRAIN-IF/ MALE, FEMALE, Route: ORAL, Dose: 3 MG/MOUSE 2/WK, Tumor Site: Type of Lesion: URINARY BLADDER, LIVER, MAMMARY GLAND, Tumor Site: Type of Lesion: URINARY BLADDER, LIVER, MAMMARY GLAND active; positive | Species: RABBIT, Strain/Sex: NZW/ MALE, FEMALE, Route: ORAL, Dose: 100 MG 2/WK (TOTAL DOSE 21-52 G AS POWDER), Tumor Site: Type of Lesion: URINARY BLADDER: PAPILLOMA, ADENOCARCINOMA, URETER: PAPILLOMA, ADENOCARCINOMA active; positive | Species: RABBIT, Strain/Sex: NZW/FEMALE, Route: ORAL, Dose: 100 MG IN 1 ML CORN OIL 2/WK FOR LIFE, Tumor Site: Type of Lesion: URINARY BLADDER: TRANSITIONAL CELL TUMOR, KIDNEY: TRANSITIONAL CELL TUMOR active; positive | Species: RAT, Strain/Sex: AES/FEMALE, Route: ORAL, Dose: 300 MG/KG IN SEMI-PURIFIED OR STOCK DIET, Tumor Site: Type of Lesion: EAR (DUCT): CARCINOMA active; positive | Species: RAT, Strain/Sex: ALBINO/ MALE, FEMALE, Route: ORAL, Dose: 0.036% IN DIET FOR 8 MO, Tumor Site: Type of Lesion: LIVER: HEPATOMA, MAMMARY GLAND, EAR (DUCT), Tumor Site: Type of Lesion: LIVER: HEPATOMA, MAMMARY GLAND, EAR (DUCT) active; positive | Species: RAT, Strain/Sex: ALBINO/FEMALE, Route: ORAL, Dose: 0.125% IN DIET, Tumor Site: Type of Lesion: URINARY BLADDER: CARCINOMA active; positive | Species: RAT, Strain/Sex: ALBINO/MALE, Route: ORAL, Dose: 0.018, 0.036% IN DIET FOR 90 DAYS, Tumor Site: Type of Lesion: LIVER: HEPATOMA, EAR (DUCT), INTESTINES (SMALL), Tumor Site: Type of Lesion: LIVER: HEPATOMA, EAR (DUCT), INTESTINES (SMALL) active; positive | Species: RAT, Strain/Sex: BUFFALO/ MALE, FEMALE, Route: ORAL, Dose: 0.05% IN DIET FOR 23 WK (580 MG/RAT), Tumor Site: Type of Lesion: LIVER: HEPATOMA, EAR (DUCT): CARCINOMA active; positive | Species: RAT, Strain/Sex: F344/MALE, Route: ORAL, Dose: 0.06% IN DIET FOR 3 WK, THEN CONTROL DIET FOR 1 WK, REPEATED 3X, Tumor Site: Type of Lesion: TESTES: MESOTHELIOMA, LIVER: HEPATOCELLULAR CARCINOMA, CHOLANGIOCARCINOMA active; positive | Species: RAT, Strain/Sex: FEMALE, Route: ORAL, Dose: 0.03% IN DIET, Tumor Site: Type of Lesion: EYE active; positive | Species: RAT, Strain/Sex: FEMALE, Route: ORAL, Dose: 1.62 MMOL/KG DIET FOR 8 MO, Tumor Site: Type of Lesion: MAMMARY GLAND, EAR (DUCT), INTESTINES (SMALL), Tumor Site: Type of Lesion: MAMMARY GLAND, EAR (DUCT), INTESTINES (SMALL) active; positive | Species: RAT, Strain/Sex: HOLTZMAN/FEMALE, Route: ORAL, Dose: 1.62 MMOL/KG IN DIET, Tumor Site: Type of Lesion: MAMMARY GLAND, EAR (DUCT), INTESTINES (SMALL), Tumor Site: Type of Lesion: MAMMARY GLAND, EAR (DUCT), INTESTINES (SMALL) active; positive | Species: RAT, Strain/Sex: HOLTZMAN/MALE, Route: ORAL, Dose: 1.62 MMOL/KG IN DIET, Tumor Site: Type of Lesion: LIVER, EAR (DUCT), INTESTINES (SMALL), Tumor Site: Type of Lesion: LIVER, EAR (DUCT), INTESTINES (SMALL) active; positive | Species: RAT, Strain/Sex: LONG-EVANS/ MALE, FEMALE, Route: ORAL, Dose: IN DIET, Tumor Site: Type of Lesion: EAR (AUDITORY CANAL): SQUAMOUS CELL CARCINOMA active; positive | Species: RAT, Strain/Sex: MALE, Route: ORAL, Dose: 1.62 MMOL/KG IN DIET FOR 8 MO, Tumor Site: Type of Lesion: LIVER: HEPATOMA, INTESTINES (SMALL), EAR (DUCT), Tumor Site: Type of Lesion: LIVER: HEPATOMA, INTESTINES (SMALL), EAR (DUCT) active; positive | Species: RAT, Strain/Sex: PIEBALD/ MALE, FEMALE, Route: ORAL, Dose: 4 MG DAILY IN DIET FOR 25 WK, Tumor Site: Type of Lesion: LIVER: HEPATOMA, EAR (DUCT): CARCINOMA, INTESTINES: CARCINOMA, Tumor Site: Type of Lesion: LIVER: HEPATOMA, EAR (DUCT): CARCINOMA, INTESTINES: CARCINOMA active; positive | Species: RAT, Strain/Sex: PIEBALD/FEMALE, Route: ORAL, Dose: 0.03% IN DIET, Tumor Site: Type of Lesion: MAMMARY GLAND: CARCINOMA active; positive | Species: RAT, Strain/Sex: PIEBALD/MALE, Route: DERMAL, Dose: IN ACETONE, Tumor Site: Type of Lesion: LIVER: HEPATOMA, INTESTINES: CARCINOMA active; positive | Species: RAT, Strain/Sex: SHEFFIELD/ MALE, FEMALE, Route: ORAL, Dose: 4 MG DAILY IN DIET FOR 25 WK, Tumor Site: Type of Lesion: LIVER: HEPATOMA, EAR (DUCT): CARCINOMA, INTESTINES: CARCINOMA, Tumor Site: Type of Lesion: LIVER: HEPATOMA, EAR (DUCT): CARCINOMA, INTESTINES: CARCINOMA active; positive | Species: RAT, Strain/Sex: SHERMAN/ MALE, FEMALE, Route: ORAL, Dose: 0.03% IN DIET FOR LIFE, Tumor Site: Type of Lesion: LIVER: CARCINOMA active; positive | Species: RAT, Strain/Sex: SPRAGUE-DAWLEY/FEMALE, Route: INTRAPERITONEAL, Dose: 1 MG/0.1 ML 3/WK FOR 4 WK (TOTAL DOSE 0.17 MMOL/RAT), Tumor Site: Type of Lesion: MAMMARY GLAND: ADENOCARCINOMA active; positive | Species: RAT, Strain/Sex: SPRAGUE-DAWLEY/FEMALE, Route: ORAL, Dose: 300 MG/KG IN SEMI-PURIFIED OR STOCK DIET, Tumor Site: Type of Lesion: EAR (DUCT): CARCINOMA active; positive | Species: RAT, Strain/Sex: STRAIN-CD/FEMALE, Route: ORAL, Dose: 80, 250 PPM IN DIET FOR 78 WK (LOW DOSE) OR 50 WK (HIGH DOSE), Tumor Site: Type of Lesion: LIVER: NEOPLASTIC NODULE, HEPATOCELLULAR CARCINOMA, MAMMARY GLAND: ADENOCARCINOMA active; positive | Species: RAT, Strain/Sex: STRAIN-CD/MALE, Route: ORAL, Dose: 80, 250 PPM IN DIET FOR 78 WK (LOW DOSE) OR 50 WK (HIGH DOSE), Tumor Site: Type of Lesion: LIVER: HEPATOCELLULAR CARCINOMA active; positive | Species: RAT, Strain/Sex: WISTAR/ MALE, FEMALE, Route: ORAL, Dose: 0.03% IN DIET FOR LIFE, Tumor Site: Type of Lesion: LIVER: CARCINOMA active; positive | Species: RAT, Strain/Sex: WISTAR/ MALE, FEMALE, Route: ORAL, Dose: 0.07% IN DIET, Tumor Site: Type of Lesion: LIVER: HEPATOMA active; positive | Species: RAT, Strain/Sex: WISTAR/MALE, Route: DERMAL, Dose: IN ACETONE, Tumor Site: Type of Lesion: LIVER: HEPATOMA, INTESTINES: CARCINOMA active; positive
